Reference: publication PMC1950546 (Nucleic Acids Research, 2007)
Where a SMILES comes first, the peptide text is derived from it.

How the values were obtained:
[1] = system: PrrC; conditions: stated in the introduction; cited from earlier work
[2] = biological target: T1, PrrC anticodon nuclease (ACNase), His6-tagged D222E mutant (Escherichia coli, UniProt P17223, D222E); assay: ACNase assay: inhibition of PrrC-catalyzed cleavage of tRNA^Lys or ASL analogs; format: biochemical
T1 sequence (P17223 1-396 D222E): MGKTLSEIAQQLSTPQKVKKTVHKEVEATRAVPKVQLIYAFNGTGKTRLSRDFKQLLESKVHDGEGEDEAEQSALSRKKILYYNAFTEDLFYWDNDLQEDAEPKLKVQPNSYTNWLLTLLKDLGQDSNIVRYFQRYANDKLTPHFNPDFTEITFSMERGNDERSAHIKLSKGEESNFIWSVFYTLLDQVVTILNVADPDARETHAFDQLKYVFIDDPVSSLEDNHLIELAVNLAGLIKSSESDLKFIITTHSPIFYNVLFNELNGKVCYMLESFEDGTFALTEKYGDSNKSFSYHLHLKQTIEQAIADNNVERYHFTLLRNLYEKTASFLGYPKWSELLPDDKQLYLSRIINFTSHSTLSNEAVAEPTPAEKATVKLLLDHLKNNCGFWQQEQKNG

SMILES	Affinity for PrrC (range) [1]	IC50 [2] [µM]
Nc1nc2c(ncn2[C@@H]2O[C@H](COP(=O)(O)OP(=O)(O)OP(=O)(O)O)[C@@H](O)[C@H]2O)c(=O)[nH]1 [GTP]	mM-range	
CC(=O)N[C@@H](CCCCN)C(=O)N[C@@H](Cc1ccc(O)cc1)C(=O)NCC(=O)N[C@@H](CC(=O)O)C(=O)N[C@@H](CO)C(=O)N[C@@H](CC(N)=O)C(=O)N[C@@H](CCCCN)C(=O)N[C@@H](CO)C(=O)N[C@@H](Cc1ccccc1)C(=O)N[C@@H](CO)C(=O)N[C@@H](Cc1ccc(O)cc1)C(N)=O [LARP, Ac-KYGDSNKSFSY-NH2] (Ac-KYGDSNKSFSY-NH2)		~100
Nc1ncnc2c1ncn2[C@@H]1O[C@H](COP(=O)(O)OP(=O)(O)OP(=O)(O)O)[C@@H](O)[C@H]1O [ATP]	mM-range	
